Molecular target: T1, BTK (Homo sapiens, UniProt Q06187)
T1 construct: BTK Degradative Activity of Exemplary Compounds of the Present Disclosure in a RAMOS Cell Line; host or cells: RAMOS
Experiment: BTK degradative activity in a RAMOS cell line (Western blot)
Format: cell-based
Conditions: 6 hours after administration, read-out: RAMOS BTK Degradation DC50
Description: RAMOS (ATCC) cells were plated in 24-well plates at 8×10^5 cells/well in the RPMI growth medium containing 10% heat-inactivated FBS and 1× Penicillin Streptomycin, and then incubated at 37° C. overnight. The following day, the test compound was administered to the cells by using 1000× compound stock solution prepared in DMSO at various concentrations. After administration of the compound, the cells were then incubated at 37° C. for 6 hours.
Upon completion, the cells were collected by centrifugation and lysed in Laemmli sample buffer (1×; VWR International). Proteins in cell lysate were separated by SDS-PAGE and transferred to Odyssey nitrocellulose membranes (Licor) with Iblot® dry blotting transfer system (ThermoFisher). Nonspecific binding was blocked by incubating membranes with Intercept Blocking Buffer (Licor) for 1 hour at room temperature with gentle shaking. The membranes were then incubated overnight at 4° C. with primary antibodies anti-BTK (Cell signaling, cat. #8547) and anti-GAPDH (Cell signaling, cat. #5179) diluted in Intercept Blocking Buffer containing 0.1% Tween 20. After washing 3 times with TBS-T, the membranes were incubated with IRDye® 800CW goat anti-mouse IgG (1:20,000, Licor) or IRDye® 800CW goat anti-rabbit IgG (1:20,000, Licor) for 1 hour. After TBS-T washes, membranes were rinsed in TBS and scanned on Odyssey® CLx Imaging System (Licor). The bands were quantified using Image Studio™ Software (Licor).
Table 3 summarizes the BTK degradative activity of exemplary compounds of the present disclosure in a RAMOS cell line 6 hours after administration. The DC50 values (i.e., the concentration of test compound at which 50% of the target protein is degraded) were calculated. A designation of “A” corresponds to a DC50 value less than 10 nM. A designation of “B” corresponds to a DC50 value greater than or equal to 10 nM and less than 100 nM. A designation of “C” corresponds to a DC50 value greater than or equal to 100 nM.

T1 sequence (Q06187 whole entry): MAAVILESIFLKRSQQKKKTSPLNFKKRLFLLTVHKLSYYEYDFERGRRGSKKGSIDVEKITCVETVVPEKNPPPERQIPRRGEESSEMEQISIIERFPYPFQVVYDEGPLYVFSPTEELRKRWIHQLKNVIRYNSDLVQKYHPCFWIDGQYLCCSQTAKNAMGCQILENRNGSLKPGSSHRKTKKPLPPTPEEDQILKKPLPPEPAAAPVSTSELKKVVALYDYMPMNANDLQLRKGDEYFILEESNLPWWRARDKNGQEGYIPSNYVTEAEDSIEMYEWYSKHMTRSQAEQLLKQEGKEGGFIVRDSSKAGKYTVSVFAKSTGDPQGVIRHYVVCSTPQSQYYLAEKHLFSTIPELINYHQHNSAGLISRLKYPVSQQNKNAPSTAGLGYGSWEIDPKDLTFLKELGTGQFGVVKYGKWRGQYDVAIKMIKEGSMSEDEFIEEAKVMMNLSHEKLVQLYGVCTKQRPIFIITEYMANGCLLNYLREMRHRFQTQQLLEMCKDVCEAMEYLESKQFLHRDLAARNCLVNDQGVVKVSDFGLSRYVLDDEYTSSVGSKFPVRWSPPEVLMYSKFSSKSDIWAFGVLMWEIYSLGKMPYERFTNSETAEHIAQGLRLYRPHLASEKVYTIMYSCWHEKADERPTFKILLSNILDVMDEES

| Compound | DC50 |
| --- | --- |
| O=C1CCC(N2C(=O)c3ccc(OCCCCCCCN4CCN(c5ccc(C(=O)N6CCC[C@@H](Nc7ncnc8[nH]cc(C(=O)c9ccc(Oc%10ccccc%10)cc9Cl)c78)C6)cn5)CC4)cc3C2=O)C(=O)N1 (stereo partly drawn) [Compound 1, 5-((7-(4-(5-((R)-3-((5-(2-chloro-4-phenoxybenzoyl)-7H-pyrrolo [2,3-d]pyrimidin-4-yl)amino)piperidine-1-carbonyl)pyridin-2-yl)piperazin-1-yl)heptyl)oxy)-2-(2,6-dioxopiperidin-3-yl)isoindoline-1,3-dione] | ≥ 100 nM |
| O=C1CCC(N2C(=O)c3ccc(N4CCN(c5ccc(C(=O)N6CCC[C@@H](Nc7ncnc8[nH]cc(C(=O)c9ccc(Oc%10ccccc%10)cc9Cl)c78)C6)cn5)CC4)cc3C2=O)C(=O)N1 (stereo partly drawn) [Compound 2, 5-(4-(5-((R)-3-((5-(2-chloro-4-phenoxybenzoyl)-7H-pyrrolo[2,3-d]pyrimidin-4-yl)amino)piperidine-1-carbonyl)pyridin-2-yl)piperazin-1-yl)-2-(2,6-dioxopiperidin-3-yl)isoindoline-1,3-dione] | ≥ 100 nM |
| O=C1CCC(N2C(=O)c3ccc(OCCCCCCN4CCN(c5ccc(C(=O)N6CCC[C@@H](Nc7ncnc8[nH]cc(C(=O)c9ccc(Oc%10ccccc%10)cc9Cl)c78)C6)cn5)CC4)cc3C2=O)C(=O)N1 (stereo partly drawn) [Compound 3, 5-((6-(4-(5-((R)-3-((5-(2-chloro-4-phenoxybenzoyl)-7H-pyrrolo [2,3-d]pyrimidin-4-yl)amino)piperidine-1-carbonyl)pyridin-2-yl)piperazin-1-yl)hexyl)oxy)-2-(2,6-dioxopiperidin-3-yl)isoindoline-1,3-dione] | ≥ 100 nM |
| O=C1CCC(N2C(=O)c3ccc(OCCCN4CCN(c5ccc(C(=O)N6CCC[C@@H](Nc7ncnc8[nH]cc(C(=O)c9ccc(Oc%10ccccc%10)cc9Cl)c78)C6)cn5)CC4)cc3C2=O)C(=O)N1 (stereo partly drawn) [Compound 4, 5-(3-(4-(5-((R)-3-((5-(2-chloro-4-phenoxybenzoyl)-7H-pyrrolo [2,3-d]pyrimidin-4-yl)amino)piperidine-1-carbonyl)pyridin-2-yl)piperazin-1-yl)propoxy)-2-(2,6-dioxopiperidin-3-yl)isoindoline-1,3-dione] | ≥ 100 nM |
| O=C1CCC(N2C(=O)c3ccc(OCCN4CCN(c5ccc(C(=O)N6CCC[C@@H](Nc7ncnc8[nH]cc(C(=O)c9ccc(Oc%10ccccc%10)cc9Cl)c78)C6)cn5)CC4)cc3C2=O)C(=O)N1 (stereo partly drawn) [Compound 5, 5-(2-(4-(5-((R)-3-((5-(2-chloro-4-phenoxybenzoyl)-7H-pyrrolo[2,3-d]pyrimidin-4-yl)amino)piperidine-1-carbonyl)pyridin-2-yl)piperazin-1-yl)ethoxy)-2-(2,6-dioxopiperidin-3-yl)isoindoline-1,3-dione] | ≥ 100 nM |
| O=C1CCC(N2C(=O)c3ccc(OCCCCCN4CCN(c5ccc(C(=O)N6CCC[C@@H](Nc7ncnc8[nH]cc(C(=O)c9ccc(Oc%10ccccc%10)cc9Cl)c78)C6)cn5)CC4)cc3C2=O)C(=O)N1 (stereo partly drawn) [Compound 6, 5-((5-(4-(5-((R)-3-((5-(2-chloro-4-phenoxybenzoyl)-7H-pyrrolo [2,3-d]pyrimidin-4-yl)amino)piperidine-1-carbonyl)pyridin-2-yl)piperazin-1-yl)pentyl)oxy)-2-(2,6-dioxopiperidin-3-yl)isoindoline-1,3-dione] | ≥ 100 nM |
| O=C1CCC(N2C(=O)c3ccc(N4CCN(CCCCCC(=O)N5CCC[C@@H](Nc6ncnc7[nH]cc(C(=O)c8ccc(Oc9ccccc9)cc8Cl)c67)C5)CC4)cc3C2=O)C(=O)N1 (stereo partly drawn) [Compound 7, 5-(4-(6-((R)-3-((5-(2-chloro-4-phenoxybenzoyl)-7H-pyrrolo[2,3-d]pyrimidin-4-yl)amino)piperidin-1-yl)-6-oxohexyl)piperazin-1-yl)-2-(2,6-dioxopiperidin-3-yl)isoindoline-1,3-dione] | 10 to 100 nM |
| O=C1CCC(N2C(=O)c3ccc(N4CCN(CCCCCCC(=O)N5CCC[C@@H](Nc6ncnc7[nH]cc(C(=O)c8ccc(Oc9ccccc9)cc8Cl)c67)C5)CC4)cc3C2=O)C(=O)N1 (stereo partly drawn) [Compound 8] | 10 to 100 nM |
| O=C1CCC(N2C(=O)c3ccc(N4CCN(Cc5ccc(C(=O)N6CCC[C@@H](Nc7ncnc8[nH]cc(C(=O)c9ccc(Oc%10ccccc%10)cc9Cl)c78)C6)cn5)CC4)cc3C2=O)C(=O)N1 (stereo partly drawn) [Compound 9, 5-(4-((5-((R)-3-((5-(2-chloro-4-phenoxybenzoyl)-7H-pyrrolo[2,3-d]pyrimidin-4-yl)amino)piperidine-1-carbonyl)pyridin-2-yl)methyl)piperazin-1-yl)-2-(2,6-dioxopiperidin-3-yl)isoindoline-1,3-dione] | 10 to 100 nM |
| O=C1CCC(N2C(=O)c3ccc(N4CCN(CC5CCN(c6ccc(C(=O)N7CCC[C@@H](Nc8ncnc9[nH]cc(C(=O)c%10ccc(Oc%11ccccc%11)cc%10Cl)c89)C7)cn6)CC5)CC4)cc3C2=O)C(=O)N1 (stereo partly drawn) [Compound 10, 5-(4-((1-(5-((R)-3-((5-(2-chloro-4-phenoxybenzoyl)-7H-pyrrolo[2,3-d]pyrimidin-4-yl)amino)piperidine-1-carbonyl)pyridin-2-yl)piperidin-4-yl)methyl)piperazin-1-yl)-2-(2,6-dioxopiperidin-3-yl)isoindoline-1,3-dione] | ≥ 100 nM |
| O=C1CCC(N2C(=O)c3ccc(N4CCN(CCCCC(=O)N5CCC[C@@H](Nc6ncnc7[nH]cc(C(=O)c8ccc(Oc9ccccc9)cc8Cl)c67)C5)CC4)cc3C2=O)C(=O)N1 (stereo partly drawn) [Compound 11, 5-(4-(5-((R)-3-((5-(2-chloro-4-phenoxybenzoyl)-7H-pyrrolo[2,3-d]pyrimidin-4-yl)amino)piperidin-1-yl)-5-oxopentyl)piperazin-1-yl)-2-(2,6-dioxopiperidin-3-yl)isoindoline-1,3-dione] | 10 to 100 nM |
| O=C1CCC(N2C(=O)c3ccc(N4CCN(CCCCCCCN5CCC(Nc6ncnc7[nH]cc(C(=O)c8ccc(Oc9ccccc9)cc8Cl)c67)CC5)CC4)cc3C2=O)C(=O)N1 (stereo not drawn) [Compound 12, 5-(4-(7-(4-((5-(2-chloro-4-phenoxybenzoyl)-7H-pyrrolo[2,3-d]pyrimidin-4-yl)amino)piperidin-1-yl)heptyl)piperazin-1-yl)-2-(2,6-dioxopiperidin-3-yl)isoindoline-1,3-dione] | 10 to 100 nM |
| O=C1CC[C@H](N2Cc3cc(N4CCN(CCCCCC(=O)N5CCC(Nc6ncnc7[nH]cc(C(=O)c8ccc(Oc9ccccc9)cc8Cl)c67)CC5)CC4)ccc3C2=O)C(=O)N1 [Compound 13, (S)-3-(5-(4-(6-(4-((5-(2-chloro-4-phenoxybenzoyl)-7H-pyrrolo[2,3-d]pyrimidin-4-yl)amino)piperidin-1-yl)-6-oxohexyl)piperazin-1-yl)-1-oxoisoindolin-2-yl)piperidine-2,6-dione] | < 10 nM |
| O=C1CC[C@H](N2Cc3cc(N4CCN(CCCCC(=O)N5CCC[C@@H](Nc6ncnc7[nH]cc(C(=O)c8ccc(Oc9ccccc9)cc8Cl)c67)C5)CC4)ccc3C2=O)C(=O)N1 [Compound 14, (S)-3-(5-(4-(5-((R)-3-((5-(2-chloro-4-phenoxybenzoyl)-7H-pyrrolo[2,3-d]pyrimidin-4-yl)amino)piperidin-1-yl)-5-oxopentyl)piperazin-1-yl)-1-oxoisoindolin-2-yl)piperidine-2,6-dione] | 10 to 100 nM |
| O=C1CCC(N2C(=O)c3ccc(N4CCN(CCCCCCN5CCC[C@@H](Nc6ncnc7[nH]cc(C(=O)c8ccc(Oc9ccccc9)cc8Cl)c67)C5)CC4)cc3C2=O)C(=O)N1 (stereo partly drawn) [Compound 15, 5-(4-(6-((R)-3-((5-(2-chloro-4-phenoxybenzoyl)-7H-pyrrolo[2,3-d]pyrimidin-4-yl)amino)piperidin-1-yl)hexyl)piperazin-1-yl)-2-(2,6-dioxopiperidin-3-yl)isoindoline-1,3-dione] | ≥ 100 nM |
